Data published in patent US20140349314A1, “METHODS AND COMPOSITIONS FOR DETECTING AND TREATING INFLAMMATORY DISEASE” (Beth Israel Deaconess Medical Center, Inc., priority 2010, published 2014).
Where a SMILES comes first, the peptide text is derived from it. The star is where a group is joined. Cbz = O=C(OCc1ccccc1)*

Columns and labels:
CD54 (ICAM-1) on HSC = assay: ICAM-1 (CD54) upregulation on HSC by TNFα (flow cytometry); format: cell-based, human
Protocol: TNFα (PEPROTECH®, Rocky Hill, N.J., USA) was added to HSC cultures, and ICAM-1 expression assessed after 2, 4 and 24 hrs by flow cytometric analysis using anti-ICAM-1-FITC (eBioscience™, San Diego, Calif., USA) on a LSR2 FACS analyzer as described above.

HSC [1] = assay: MMP transcript levels in HSC after S100-MP with or without TNFα; format: cell-based, human
Protocol: FIG. 13C is a graph showing mRNA transcript levels of the indicated MMP gene in HSC after addition of S100-MP with or without TNFα (10 ng/mL) for 24 h (*p<0.05, **p=0.04, ***p=0.001).
It remained to be shown what cell membrane molecule(s) or receptor(s) mediate(s) attachment and uptake of S100-MP by HSC. […] Assuming that ICAM-1 on the recipient HSC is engaged by CD11a/CD18 on the S100-MP, any treatment of HSC that increases CD54 should enhance MP uptake and subsequent fibrolytic activation of HSC. We therefore incubated HSC with 10 ng/mL TNF-α, a strong inducer of CD54, which induced a robust (>10-fold) upregulation of CD54 after 24 hrs (FIG. 13B). This led to a further significant MP-induced increase (by 40%) of MMP-3 mRNA expression in the induced HSC as compared to untreated HSC (FIG. 13C). […] For MMP-3 the effect of combined TNF-α and MP treatment was overadditive as compared to the added effects of TNF-α or S100-MP alone (FIG. 13C).

[2] = system: MP-stimulated MMP-3 mRNA expression in HSC; assay: Signaling pathway inhibition: MP-stimulated MMP-3 mRNA expression in HSC; format: cell-based, human; details: for inhibition of MP-stimulated MMP-3 induction: vs untreated S100-MP stimulated controls, SB 5 μg/mL, MG 15 μg/mL
Protocol: In order to define major signaling pathways that lead to MMP-induction by S100-MP, we used specific inhibitors of several kinases. MP-stimulated MMP-3 mRNA expression served as fibrolytic read-out.
Pathway inhibition experiments were performed in 24 hour serum-starved HSC. […] The proteasome inhibitor MG132 (Rockland Inc., USA) was used to block NFκB nuclear translocation and activity.

HSC [3] = assay: Apoptosis assay (Annexin V / 7-AAD FACS) in HSC; format: cell-based, human
Protocol: It was reported earlier that MP derived from macrophages could trigger apoptosis in recipient cells.
24 hrs serum-starved HSC were incubated with S100-MP for 24 hrs. Apoptosis and necrosis induction by S100-MP were assessed by FACS analysis for Annexin V and 7-aminoactinomycin D staining (both from eBioscience™, San Diego, Calif., USA) on a LSR2 FACS analyzer with CELLQuest software (Becton Dickinson, San Jose, Calif.).

[4] = system: human LX-2 hepatic stellate cells (HSC); assay: Fibrosis-related transcript levels by quantitative RT-PCR in LX-2 HSC incubated with T cell-derived MP; format: cell-based; details: 24 hours
Protocol: Effect of S100 T Cell-MP on Fibrosis-Related Gene Expression by HSC Fibrosis related transcripts were measured from 200×10^3 serum-starved human LX-2 HSC 24 hours after addition of 1×10^3 or 50×10^3 S100-MP from Jurkat T cells using quantitative RT-PCR. S10-MP, plain medium, and ST alone served as controls. MP were obtained from PHA-activated and/or apoptotic (ST-treated) Jurkat T cells. After T cell apoptosis induction, significant changes in fibrosis-related transcripts were found with 50×10^3 S100-MP, while equivalent amounts of S10-MP had no effect (FIG. 6). […] Similar results were obtained when S100-MP were incubated with freshly isolated primary rat HSC. Here the human S100-MP induced MMP-3 even 9-fold (FIG. 7).
For induction of apoptosis T cells were cultured in RPMI and treated with 4 μM/mL Staurosporine (ST, Cell Signaling Technology®, Danvers, Mass.) for 4 hours. […]
(§1) HSC (200×10^3/well) were seeded into six-well cell culture plates and serum-starved as above. […] Relative transcript levels were quantified by real-time RT-PCR on a LightCycler 1.5 instrument (Roche, Mannheim, Germany) using the TaqMan methodology as described previously (52). […] Experiments were performed in triplicates and values represent means±SD, being expressed as arbitrary units relative to the housekeeping gene beta2-microglobulin.

[5] = system: TGFβ1 (5 ng/mL)-activated HSC; assay: Fibrosis-related transcript levels in TGFβ1-activated HSC incubated with S100-MP; format: cell-based, human; details: 5 ng/mL TGFβ1
Protocol: FIG. 9 is a series of graphs showing mRNA transcript levels of the indicated gene in TGFβ1 (5 ng/mL)-activated HSC when incubated with the indicated amount of S100-MP for 24 hours. All experiments were performed at least twice with n=3-4 per group. Results (means±SD) are expressed as arbitrary units relative to beta2-microglobulin mRNA; *p<0.05 vs. medium control.
Human HSC were exposed to 5 ng/mL TGFβ1, which elicits a strong fibrogenic response. […] Thus TGFβ1 enhanced HSC procollagen α1(I) expression 2.7-fold, which after MP addition was reduced by almost 40%, and MP increased the expression of MMP-3 and MMP-13 almost 2.5- and 2.1-fold, respectively.
as §1, with “above. HSC were then incubated with 1×10^3 or 50×10^3 S10-MP or S100-MP for 24 hours, followed by total RNA extraction from cells using TRIzol (Invitrogen, Carlsbad, Calif.). One μg of RNA was reverse-transcribed using random primers and Superscript RNase H-reverse transcriptase (Invitrogen).” for “above.”

TNF-α
upregulation of CD54 on HSC (CD54 (ICAM-1) on HSC; 10 ng/mL TNF-α, after 24 hrs): > 10 fold
upregulation of CD54 on HSC (CD54 (ICAM-1) on HSC; TNFα 10 ng/mL for 0, 4, and 24 hours): 40%
further MP-induced increase of MMP-3 mRNA in TNF-α-induced HSC as compared to untreated HSC (HSC [1]; TNF-α 10 ng/mL plus S100-MP, 24 h): 40%
effect of TNF-α alone on HSC MMP-3 mRNA (HSC [1]; TNF-α alone): not capable to enhance
effect of TNF-α alone on HSC MMP-9 and MMP-13 expression (HSC [1]; TNF-α alone): modestly induced
effect of combined TNF-α and MP treatment on MMP-3 compared to added single effects (HSC [1]; TNF-α plus S100-MP): overadditive

C[S+]([O-])c1ccc(-c2nc(-c3ccncc3)c(-c3ccc(F)cc3)[nH]2)cc1 (stereo not drawn) [SB203580]
inhibition of MP-stimulated MMP-3 induction [2]: 50%

CN[C@@H]1C[C@H]2O[C@@](C)([C@@H]1OC)n1c3ccccc3c3c4c(c5c6ccccc6n2c5c31)C(=O)NC4 [ST, staurosporine]
apoptosis or necrosis induction in HSC, in words (HSC [3]; 24 hours of incubation, ST 0.04 μM/mL): induced apoptosis
late apoptosis of HSC (HSC [3]; 24 hours, ST alone): ≤ 10%
necrosis of HSC (HSC [3]; 24 hours, ST alone): up to 14%
higher percentage of late apoptotic HSC compared to S100-MP (HSC [3]; ST 0.04 μM/mL, 7-AAD/Annexin FACS): 7 fold
effect on fibrosis-related gene expression (MMPs, TIMP-1, procollagen α1(I)) in HSC, in words [4]: induced only MMP-9

N#CC(=C(/N)Sc1ccccc1N)/C(C#N)=C(\N)Sc1ccccc1N [U0126]
effect on MP-stimulated MMP-3 mRNA, in words [2]: Complete abrogation

CC(C)C[C@@H](C=O)NC(=O)[C@H](CC(C)C)NC(=O)[C@H](CC(C)C)NC(=O)OCc1ccccc1 [MG132] (Cbz-Leu-Leu-Leu-aldehyde)
inhibition of MP-stimulated MMP-3 induction [2]: 50%

TGFβ1: profibrogenic cytokine used to activate HSC
enhancement of HSC procollagen α1(I) expression [5]: 2.7 fold
